One assay has as its target JNK1 (Homo sapiens, UniProt P45983). Put plainly: JNK1 inhibition. The assay is classed as biochemical. The following applies: read-out: inhibition (IC50) with regard to JNK1.
Assay [1] relates to IL-2 release by (PMA+Ionomycin)-stimulated Jurkat cells. Kind of assay: IL-2 release assay (IL-2 ELISA). The assay is classed as cell-based. Particulars: Homo sapiens; PMA + Ionomycine stimulated Jurkat cells. On the procedure: The Ability of the Compounds According to Formula I to Modulate the Inflammatory Response by Inhibiting the Release of IL-2 was Assessed Using the Following Protocol
JNK pathway activation triggers the production of inflammatory cytokines such as IL-2. JNK can be activated by external stimuli such as PMA and Ionomycine and IL-2 production can be measured via an IL-2 ELISA test. Comparative measurements with and without the compounds of the invention according to the following protocol measure the ability of the compounds to prevent to stress-mediated IL-2 release.
Jurkat cells, a human T cell leukemia cell line (American Type Culture Collection # TIB 152) were cultured in RPMI 1640 medium (Gibco, BRL) supplemented with 10% of […] fetal calf serum (FCS), Glutamine and Penstrep. The cell suspension in the medium is diluted to give 2.10^6 cells/mL. The cells were plated (2.10^5 cells/well) on a 96-well plate containing different concentrations of a compound according to formula I (final concentration of compounds, 10, 3, 1, 0.3, 0.1 μM). This mixture is incubated 30 minutes at 37° C. in a humidified CO2 atmosphere. Cells were then treated with 10 μl PMA (Phorbolmyristate-13 Acetate-12)+Ionomycine (0.1 μM and 1 μM final concentration) in all wells except negative control. In wells without compounds, 10 μl of RPMI 2% DMSO (=0.1% final) is added. Cells are incubated 24 hours at 37° C. and then the supernatant harvested (freeze at −20° C. if not used the same day) prior to performing IL-2 ELISA test on the supernatant.
IL-2 release into the medium by (PMA+Iononomycin)-stimulated Jurkat cells, in presence or absence of test compounds may be assayed by ELISA. Following the procedure described below.
Monoclonal anti-human IL-2 antibody (MAB602) (capture), biotinylated anti-human IL-2 antibody (BAF202) (detection) and recombinant human IL-2 (202-IL-010) (standard) from From R&D Systems are used. […]
• 1. […] Optical density is measured using a microtiter plate reader set to 450 nm with correction at 570 nm.
A general note: In an ELISA, binding on a coated surface is turned into a signal by an enzyme label.

The values that follow come from patent US7544700B2, “Pharmaceutically active sulfonamide derivatives bearing both lipophilic and ionisable moieties as inhibitors of protein JunKinases” (Laboratoires Serono SA, priority 2000, dated 2009).

JNK1, sequence (P45983 whole entry, species assumed): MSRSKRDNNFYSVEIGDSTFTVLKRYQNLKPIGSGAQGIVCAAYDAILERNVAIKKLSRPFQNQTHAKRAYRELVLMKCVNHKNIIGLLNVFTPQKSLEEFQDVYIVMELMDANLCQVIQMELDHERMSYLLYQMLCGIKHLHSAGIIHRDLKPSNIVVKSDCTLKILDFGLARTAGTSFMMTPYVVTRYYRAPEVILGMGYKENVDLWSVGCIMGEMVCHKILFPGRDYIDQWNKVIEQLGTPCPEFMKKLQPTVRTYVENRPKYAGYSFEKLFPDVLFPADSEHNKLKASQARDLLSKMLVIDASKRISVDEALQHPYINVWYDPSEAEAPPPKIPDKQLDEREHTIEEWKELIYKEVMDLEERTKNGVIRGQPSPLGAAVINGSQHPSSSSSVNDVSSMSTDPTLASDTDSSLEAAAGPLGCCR

Consider `COc1cccc(C(=O)NCc2ccc(S(=O)(=O)N3CCC(NCc4ccc(C(F)(F)F)cc4)CC3)s2)c1` [Example 1, 3-Methoxy-N-{[5-({4-[(4-trifluoromethylbenzyl)amino]piperidin-1-yl}sulfonyl)thien-2-yl]methyl}benzamide], for which the IC50 – broadly, the point on the concentration scale where inhibition reaches its midpoint – on JNK1 is 100 to 700 nM; in assay [1], < 800 nM.
